Test results taken from PubChem BioAssay (NCI).
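Five compound concentrations were applied to cells in 96-well plates for 48 hours; endpoints were derived by simple linear interpolation of the resulting dose-response curve. GI50 marks 50% less growth. TGI denotes the concentration required for complete inhibition of growth.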

What was measured:
Assay in all cases: DTP human tumour cell line panel, 48 h
[1] = test system: SK-OV-3 ovarian
[2] = test system: SF-539 CNS
[3] = test system: SK-MEL-5 melanoma
[4] = test system: SW-620 colon
[5] = test system: T-47D breast
[6] = test system: MDA-MB-231 breast
[7] = test system: IGROV1 ovarian
[8] = test system: MCF7 breast
[9] = test system: BT-549 breast
[10] = test system: OVCAR-4 ovarian
[11] = test system: MALME-3M melanoma
[12] = test system: U251 CNS
[13] = test system: SK-MEL-28 melanoma
[14] = test system: MOLT-4 leukemia
[15] = test system: LOX IMVI melanoma
[16] = test system: SK-MEL-2 melanoma
[17] = test system: PC-3 prostate
[18] = test system: RPMI-8226 leukemia
[19] = test system: K-562 leukemia
[20] = test system: A498 renal
[21] = test system: HL-60(TB) leukemia
[22] = test system: 786-0 renal
[23] = test system: NCI-H226 lung
[24] = test system: HS 578T breast
[25] = test system: UACC-62 melanoma
[26] = test system: HCC-2998 colon
[27] = test system: A549 NSCLC
[28] = test system: CAKI-1 renal
[29] = test system: RXF 393 renal
[30] = test system: SNB-75 CNS
[31] = test system: MDA-MB-435
[32] = test system: COLO 205 colon
[33] = test system: HOP-92 NSCLC
[34] = test system: OVCAR-5 ovarian
[35] = test system: KM12 colon
[36] = test system: SNB-19 CNS
[37] = test system: HCT-15 colon
[38] = test system: HT29 colon
[39] = test system: SR leukemia
[40] = test system: DU-145 prostate
[41] = test system: UO-31 renal
[42] = test system: UACC-257 melanoma
[43] = test system: HCT-116 colon
[44] = test system: ACHN renal
[45] = test system: TK-10 renal
[46] = test system: NCI-H460 lung
[47] = test system: NCI/ADR-RES ovarian
[48] = test system: NCI-H522 lung
[49] = test system: HOP-62 NSCLC
[50] = test system: SN12C renal
[51] = test system: OVCAR-3 ovarian
[52] = test system: SF-268 CNS
[53] = test system: SF-295 CNS
[54] = test system: NCI-H23 lung
[55] = test system: OVCAR-8 ovarian
[56] = test system: CCRF-CEM leukemia
[57] = test system: M14 melanoma

`CCN(Cc1ccc(F)cc1)c1ccc(CO)c(Br)c1` was tested. Which GI50 [1] did it give?
Its GI50 is 5.18 µM.

And the TGI [1]?
Its TGI is 21.9 µM.

And the GI50 [2]?
The GI50 was 15 µM.

What about the TGI [2] of the same compound?
The TGI was 29.4 µM.

And the GI50 [3]?
The GI50 was 3.42 µM.

What about the TGI [3] of the same compound?
Its TGI is 19.6 µM.

And the GI50 [4]?
Its GI50 is 0.475 µM.

And the TGI [4]?
The TGI was greater than 41.2 µM.

What about the GI50 [5] of the same compound?
The GI50 was 0.0546 µM.

And the TGI [5]?
Its TGI is 0.296 µM.

What about the GI50 [6] of the same compound?
The GI50 was 14.2 µM.

What about the TGI [6] of the same compound?
Its TGI is 36.5 µM.

And the GI50 [7]?
The GI50 was 0.0402 µM.

And the TGI [7]?
Its TGI is 0.202 µM.

And the GI50 [8]?
Its GI50 is 0.15 µM.

And the TGI [8]?
The TGI was 16.1 µM.

And the GI50 [9]?
Its GI50 is 12.2 µM.

What about the TGI [9] of the same compound?
The TGI was 29 µM.

And the GI50 [10]?
The GI50 was 0.152 µM.

And the TGI [10]?
The TGI was 2.68 µM.

What about the GI50 [11] of the same compound?
Its GI50 is 16.9 µM.

And the TGI [11]?
The TGI was 38 µM.

And the GI50 [12]?
Its GI50 is 0.171 µM.

What about the TGI [12] of the same compound?
Its TGI is 13 µM.

And the GI50 [13]?
Its GI50 is 15 µM.

And the TGI [13]?
The TGI was 50.6 µM.

What about the GI50 [14] of the same compound?
The GI50 was 18.8 µM.

And the TGI [14]?
The TGI was 53.1 µM.

What about the GI50 [15] of the same compound?
The GI50 was 11.6 µM.

What about the TGI [15] of the same compound?
The TGI was 26.1 µM.

And the GI50 [16]?
The GI50 was 0.96 µM.

And the TGI [16]?
The TGI was 12.6 µM.

What about the GI50 [17] of the same compound?
Its GI50 is 12.8 µM.

What about the TGI [17] of the same compound?
The TGI was 36.2 µM.

What about the GI50 [18] of the same compound?
Its GI50 is 0.646 µM.

And the TGI [18]?
The TGI was 22.1 µM.

What about the GI50 [19] of the same compound?
The GI50 was 0.487 µM.

What about the TGI [19] of the same compound?
Its TGI is 18.4 µM.

What about the GI50 [20] of the same compound?
The GI50 was 0.0272 µM.

What about the TGI [20] of the same compound?
The TGI was 0.136 µM.

What about the GI50 [21] of the same compound?
Its GI50 is 3.26 µM.

And the TGI [21]?
The TGI was 26.4 µM.

What about the GI50 [22] of the same compound?
Its GI50 is 5.85 µM.

What about the TGI [22] of the same compound?
Its TGI is 31.1 µM.

And the GI50 [23]?
Its GI50 is 0.0987 µM.

And the TGI [23]?
The TGI was 0.231 µM.

And the GI50 [24]?
The GI50 was 13.5 µM.

What about the TGI [24] of the same compound?
The TGI was 46.1 µM.

What about the GI50 [25] of the same compound?
The GI50 was 0.0522 µM.

And the TGI [25]?
Its TGI is 0.342 µM.

And the GI50 [26]?
The GI50 was 5.29 µM.

And the TGI [26]?
The TGI was 30.8 µM.

What about the GI50 [27] of the same compound?
The GI50 was 0.614 µM.

And the TGI [27]?
The TGI was 21.3 µM.

What about the GI50 [28] of the same compound?
Its GI50 is 1.02 µM.

What about the TGI [28] of the same compound?
The TGI was 15.1 µM.

And the GI50 [29]?
The GI50 was 1.4 µM.

What about the TGI [29] of the same compound?
Its TGI is 16.1 µM.

And the GI50 [30]?
Its GI50 is 6.28 µM.

What about the TGI [30] of the same compound?
The TGI was 39.8 µM.

What about the GI50 [31] of the same compound?
The GI50 was 19.4 µM.

And the TGI [31]?
Its TGI is 49.6 µM.

What about the GI50 [32] of the same compound?
Its GI50 is 0.966 µM.

And the TGI [32]?
The TGI was 4.98 µM.

And the GI50 [33]?
Its GI50 is 0.173 µM.

And the TGI [33]?
The TGI was 6.23 µM.

What about the GI50 [34] of the same compound?
Its GI50 is 0.0525 µM.

What about the TGI [34] of the same compound?
The TGI was 0.225 µM.

What about the GI50 [35] of the same compound?
The GI50 was 23.4 µM.

What about the TGI [35] of the same compound?
The TGI was 63.1 µM.

What about the GI50 [36] of the same compound?
The GI50 was 15.7 µM.

And the TGI [36]?
Its TGI is 44.2 µM.

And the GI50 [37]?
The GI50 was 5.8 µM.

And the TGI [37]?
The TGI was greater than 52.6 µM.

What about the GI50 [38] of the same compound?
Its GI50 is 2.4 µM.

And the TGI [38]?
The TGI was 19.4 µM.

What about the GI50 [39] of the same compound?
Its GI50 is 17 µM.

And the TGI [39]?
Its TGI is 46.4 µM.

What about the GI50 [40] of the same compound?
Its GI50 is 16.5 µM.

What about the TGI [40] of the same compound?
The TGI was greater than 53.1 µM.

And the GI50 [41]?
The GI50 was 2.89 µM.

What about the TGI [41] of the same compound?
The TGI was greater than 40.3 µM.

What about the GI50 [42] of the same compound?
The GI50 was 0.0406 µM.

And the TGI [42]?
Its TGI is 0.185 µM.

And the GI50 [43]?
Its GI50 is 0.046 µM.

And the TGI [43]?
The TGI was 12.6 µM.

And the GI50 [44]?
The GI50 was 10.2 µM.

What about the TGI [44] of the same compound?
Its TGI is 42 µM.

What about the GI50 [45] of the same compound?
Its GI50 is 0.021 µM.

What about the TGI [45] of the same compound?
Its TGI is 0.101 µM.

What about the GI50 [46] of the same compound?
Its GI50 is 0.144 µM.

And the TGI [46]?
The TGI was 12.1 µM.

And the GI50 [47]?
Its GI50 is 13.4 µM.

What about the TGI [47] of the same compound?
Its TGI is 46.8 µM.

And the GI50 [48]?
The GI50 was 13.8 µM.

What about the TGI [48] of the same compound?
The TGI was 30.2 µM.

What about the GI50 [49] of the same compound?
Its GI50 is 0.646 µM.

What about the TGI [49] of the same compound?
Its TGI is 20.2 µM.

What about the GI50 [50] of the same compound?
Its GI50 is 8.71 µM.

What about the TGI [50] of the same compound?
The TGI was 23.9 µM.

What about the GI50 [51] of the same compound?
Its GI50 is 0.238 µM.

And the TGI [51]?
The TGI was 0.868 µM.

What about the GI50 [52] of the same compound?
Its GI50 is 22.6 µM.

And the TGI [52]?
The TGI was greater than 56.3 µM.

And the GI50 [53]?
The GI50 was 0.148 µM.

What about the TGI [53] of the same compound?
Its TGI is 2.3 µM.

And the GI50 [54]?
The GI50 was 15.6 µM.

What about the TGI [54] of the same compound?
Its TGI is greater than 56.1 µM.

And the GI50 [55]?
Its GI50 is 9.64 µM.

And the TGI [55]?
Its TGI is 47.1 µM.

What about the GI50 [56] of the same compound?
Its GI50 is 14.6 µM.

And the TGI [56]?
Its TGI is 43.9 µM.

What about the GI50 [57] of the same compound?
The GI50 was 16.5 µM.

What about the TGI [57] of the same compound?
The TGI was greater than 55.1 µM.
